Data published in patent publication US20230330254A1 (Regeneron Pharmaceuticals, Inc., priority 2022, published 2023).
*1 amine or outer side, *2 acyl side, *3 side chain or, on linkers, in order; H or OH if unused. Where a SMILES comes first, the peptide text is derived from it. [ ]: non-standard residue; d: D form. The star is where a group is joined. Bip(2'-Et-4'-O(CH2)4NH2) = CCc1cc(OCCCCN[*:3])ccc1-c1ccc(C[C@H](N[*:1])C(=O)[*:2])cc1; X10 = O=C(NCCOCCOCCOCCOC(=O)*)OC[C@@H]1[C@@H]2CCc3[nH]nnc3CC[C@@H]21; Malonyl(2,2-Me2,histaminyl) = CC(C)(C(=O)NCCc1cnc[nH]1)C(=O)*; Nva(5-(3,5-Me2Ph)) = Cc1cc(C)cc(CCC[C@H](N)C(=O)O)c1; Ala(1H-tetrazol-5-yl) = N[C@@H](Cc1nnn[nH]1)C(=O)O; αMePhe(2-F) = C[C@](N)(Cc1ccccc1F)C(=O)O

Legend:
HEK293/CRE-Luc cells [1] = test: Luciferase reporter assay, HEK293/CRE-Luc cells without hGLP1R (Example 11); assay type: cell-based, human; settings: Experiment A
Source text: To test the activity of GLP1R agonist payloads, GLP1R agonist linker-payloads (LPs), and anti-GLP1R antibody tethered drug conjugates (ATDCs) of the disclosure, a cell-based cAMP responsive luciferase reporter assay was developed. To generate the assay cell line, the firefly luciferase gene was placed under the control of a cAMP response element (CRE) located upstream of a minimal promoter and transfected into HEK293 cells and referred to herein as HEK293/CRE-Luc cells.
Three-fold serial dilutions of free payloads or LPs were prepared in 100% DMSO, transferred to fresh assay media, and added to the cells at a final constant DMSO concentration of 0.2%. The last well in the plate served as a blank control containing only the assay media and 0.2% DMSO (untreated well) and was plotted as a continuation of the 3-fold serial dilution. Four to six hours later, luciferase activity was determined after the addition of One-Glo™ reagent (Promega, Cat #E6130) to each well. Relative light units (RLUs) were measured on an Envision luminometer (PerkinElmer) and EC50 values were determined using a four-parameter logistic equation over a 12-point dose response curve (GraphPad Prism). The signal to noise (S/N) was determined by taking the ratio of the highest RLU on the dose response curve to the RLU in the untreated wells.

HEK293/CRE-Luc cells [2] = test: Luciferase reporter assay, HEK293/CRE-Luc cells without GLP1R (Example 17); assay type: cell-based, human; settings: HEK293/CRE-Luc cells without hGLP1R
Outline: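 HEK293 cells carrying a CRE-driven firefly luciferase reporter were exposed to 3-fold serial dilutions of payloads or linker-payloads (12 points, 0.2% DMSO final) for 4–6 h, then luminescence was read. EC50 came from a four-parameter logistic fit; S/N is top RLU over untreated wells, and relative potency and S/N are referenced to M2361.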

[3] = Plasma stability of payloads and linker-payloads, human plasma; assay type: in vitro ADME; settings: plasma, pH 7.4, tested time D (7 days), 2 μM, 37° C., read-out: Human plasma stability assay T½ (converted)
Method: The plasma stability of payloads and linker payloads of the disclosure were measured. For the assay, pooled frozen plasma (human, mouse or monkey) was thawed in cold water or a 37° C. water bath prior to experiment. Plasma was centrifuged at 4000 rpm for 5 min if any clots were observed, they were subsequently removed. If required, the pH was adjusted to 7.4±0.1. For the preparation of compounds and positive controls, a 1 mM intermediate solution was prepared by diluting 10 μL of their stock solution with 90 μL DMSO; a 1 mM intermediate solution of the positive control (Propantheline) was prepared by diluting 10 μL of its stock solution with 90 μL ultrapure water. […] 98 μL of plasma was spiked with 2 μL of dosing solution (100 μM) to achieve the final concentration of 2 μM in duplicate. Samples were then incubated at 37° C. in a water bath. […] At each time point, 400 μL of stop solution (200 ng/mL tolbutamide plus 200 ng/mL labetalol in 50% ACN/MeOH) was added to precipitate protein and mixed thoroughly. Sample plates were then centrifuged at 4,000 rpm for 10 min. An aliquot of supernatant (50 μL) was transferred from each well and mixed with 100 μL ultrapure water. The samples were then shaken at 800 rpm for approximately 10 min before submitting for LC-MS/MS analysis.

CC[C@H](C)[C@H](NC(=O)[C@H](Cc1ccccc1)NC(=O)[C@H](CCC(=O)O)NC(=O)[C@H](CCCCN)NC(=O)[C@H](C)NC(=O)[C@H](C)NC(=O)[C@H](CCC(N)=O)NC(=O)CNC(=O)[C@H](CCC(=O)O)NC(=O)[C@H](CC(C)C)NC(=O)[C@H](Cc1ccc(O)cc1)NC(=O)[C@H](CO)NC(=O)[C@H](CO)NC(=O)[C@@H](NC(=O)[C@H](CC(=O)O)NC(=O)[C@H](CO)NC(=O)[C@@H](NC(=O)[C@H](Cc1ccccc1)NC(=O)[C@@H](NC(=O)CNC(=O)[C@H](CCC(=O)O)NC(=O)[C@H](C)NC(=O)[C@@H](N)Cc1c[nH]cn1)[C@@H](C)O)[C@@H](C)O)C(C)C)C(=O)N[C@@H](C)C(=O)N[C@@H](Cc1c[nH]c2ccccc12)C(=O)N[C@@H](CC(C)C)C(=O)N[C@H](C(=O)N[C@@H](CCCCN)C(=O)NCC(=O)N[C@@H](CCCNC(=N)N)C(N)=O)C(C)C [GLP1, glucagon-like peptide 1, reference compound]
HEK293/CRE-LUC S/N (HEK293/CRE-Luc cells [1]; Table 11, no hGLP1R expression): 1.3
HEK293/CRE-Luc S/N (HEK293/CRE-Luc cells [1]; Table 12): 1.4
S/N (HEK293/CRE-Luc cells [2]; ATDCs and references (Table 27)): 1.4
S/N (HEK293/CRE-Luc cells [2]; payloads and linker-payloads): 1.3

CCc1cc(OCCCCn2cc(COCCOCCOCCOCCNC(=O)OC[C@@H]3[C@@H]4CCc5[nH]nnc5CC[C@@H]43)nn2)ccc1-c1ccc(C[C@H](NC(=O)[C@H](CC(=O)O)NC(=O)[C@H](CO)NC(=O)[C@@H](NC(=O)[C@](C)(Cc2ccccc2F)NC(=O)[C@@H](NC(=O)CNC(=O)[C@H](Cc2nn[nH]n2)NC(=O)C(C)(C)C(=O)NCCc2cnc[nH]2)[C@@H](C)O)[C@@H](C)O)C(=O)N[C@@H](CCCc2cc(C)cc(C)c2)C(N)=O)cc1 [LP24, triazole-BCN-PEG4-triazole-P8]
half-life at 2 µM [3]: > 16.9 days

CCc1cc(OCCCCNC(=O)OCCOCCOCCOCCNC(=O)OC[C@@H]2[C@@H]3CCc4[nH]nnc4CC[C@@H]32)ccc1-c1ccc(C[C@H](NC(=O)[C@H](CC(=O)O)NC(=O)[C@H](CO)NC(=O)[C@@H](NC(=O)[C@](C)(Cc2ccccc2F)NC(=O)[C@@H](NC(=O)CNC(=O)[C@H](Cc2nn[nH]n2)NC(=O)C(C)(C)C(=O)NCCc2cnc[nH]2)[C@@H](C)O)[C@@H](C)O)C(=O)N[C@@H](CCCc2cc(C)cc(C)c2)C(N)=O)cc1 [LP25, triazole-BCN-PEG4-carba-mate-P9] ({Malonyl(2,2-Me2,histaminyl)}-[Ala(1H-tetrazol-5-yl)]GT[αMePhe(2-F)]TSD[Bip(2'-Et-4'-O(CH2)4NH2)](X10)[Nva(5-(3,5-Me2Ph))]-NH2)
half-life at 2 µM [3]: 11.9 days

CCc1cc(OCCCCNC(=O)[C@H](CO)NC(=O)CNC(=O)CNC(=O)CNC(=O)CNC(=O)CCC(=O)N2Cc3ccccc3-c3nn[nH]c3-c3ccccc32)ccc1-c1ccc(C[C@H](NC(=O)[C@H](CC(=O)O)NC(=O)[C@H](CO)NC(=O)[C@@H](NC(=O)[C@](C)(Cc2ccccc2F)NC(=O)[C@@H](NC(=O)CNC(=O)[C@H](Cc2nn[nH]n2)NC(=O)C(C)(C)C(=O)NCCc2cnc[nH]2)[C@@H](C)O)[C@@H](C)O)C(=O)N[C@@H](CCCc2cc(C)cc(C)c2)C(N)=O)cc1 [LP26, triazole- DIBAC- G4S-P9]
half-life at 2 µM [3]: > 16.9 days
